Assays:
[1] = Half life in Sprague-Dawley rat at 5 mg/kg, po measured up to 24 hrs by LC-MS/MS analysis; format: ADME, organism-based; settings: in vivo
[2] = molecular target: Glucagon-like peptide 1 receptor (Homo sapiens, UniProt P43220); assay: Agonist activity at N-terminal hemagglutinin-tagged human GLP-1R expressed in CHO cells co-transfected with pcDNA3.0 assessed as increase in intracellular cAMP accumulation incubated for 30 mins by microplate reader analysis; format: functional, cell-based
Sequence of Glucagon-like peptide 1 receptor (P43220 whole entry): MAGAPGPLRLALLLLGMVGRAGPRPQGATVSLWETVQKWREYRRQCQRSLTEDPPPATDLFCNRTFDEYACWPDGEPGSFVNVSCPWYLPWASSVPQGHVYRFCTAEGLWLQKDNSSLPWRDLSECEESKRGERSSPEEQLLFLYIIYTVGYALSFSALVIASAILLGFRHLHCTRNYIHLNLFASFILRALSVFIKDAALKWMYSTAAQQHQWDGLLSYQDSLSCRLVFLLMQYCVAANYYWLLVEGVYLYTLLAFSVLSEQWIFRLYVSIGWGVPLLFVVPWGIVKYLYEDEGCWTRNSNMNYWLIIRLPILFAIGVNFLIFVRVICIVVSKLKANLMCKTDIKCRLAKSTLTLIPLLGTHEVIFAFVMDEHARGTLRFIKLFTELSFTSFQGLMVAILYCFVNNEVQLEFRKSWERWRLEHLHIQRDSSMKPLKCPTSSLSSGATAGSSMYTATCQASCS

in vivo = settings: Sprague-Dawley, rat, po, 5 mg/kg
[3] = Fraction of the dose absorbed in Sprague-Dawley rat at 5 mg/kg, po measured up to 24 hrs by LC-MS/MS analysis; format: ADME, organism-based; settings: in vivo, read-out: Fabs
[4] = Observed apparent oral clearance in Sprague-Dawley rat at 5 mg/kg, po measured up to 24 hrs by LC-MS/MS analysis; format: ADME, organism-based; settings: in vivo
[5] = AUC (0 to infinity) in Sprague-Dawley rat at 5 mg/kg, po measured up to 24 hrs by LC-MS/MS analysis; format: ADME, organism-based; settings: in vivo
[6] = Cmax in Sprague-Dawley rat at 5 mg/kg, po measured up to 24 hrs by LC-MS/MS analysis; format: ADME, organism-based; settings: in vivo
hERG (KCNH2) [7] = molecular target: T1, hERG (KCNH2) (Homo sapiens, UniProt Q12809); assay: Inhibition of hERG at 1 uM at -80 mV holding potential by whole-cell patch clamp analysis relative to control; format: toxicity
T1 sequence (Q12809 whole entry): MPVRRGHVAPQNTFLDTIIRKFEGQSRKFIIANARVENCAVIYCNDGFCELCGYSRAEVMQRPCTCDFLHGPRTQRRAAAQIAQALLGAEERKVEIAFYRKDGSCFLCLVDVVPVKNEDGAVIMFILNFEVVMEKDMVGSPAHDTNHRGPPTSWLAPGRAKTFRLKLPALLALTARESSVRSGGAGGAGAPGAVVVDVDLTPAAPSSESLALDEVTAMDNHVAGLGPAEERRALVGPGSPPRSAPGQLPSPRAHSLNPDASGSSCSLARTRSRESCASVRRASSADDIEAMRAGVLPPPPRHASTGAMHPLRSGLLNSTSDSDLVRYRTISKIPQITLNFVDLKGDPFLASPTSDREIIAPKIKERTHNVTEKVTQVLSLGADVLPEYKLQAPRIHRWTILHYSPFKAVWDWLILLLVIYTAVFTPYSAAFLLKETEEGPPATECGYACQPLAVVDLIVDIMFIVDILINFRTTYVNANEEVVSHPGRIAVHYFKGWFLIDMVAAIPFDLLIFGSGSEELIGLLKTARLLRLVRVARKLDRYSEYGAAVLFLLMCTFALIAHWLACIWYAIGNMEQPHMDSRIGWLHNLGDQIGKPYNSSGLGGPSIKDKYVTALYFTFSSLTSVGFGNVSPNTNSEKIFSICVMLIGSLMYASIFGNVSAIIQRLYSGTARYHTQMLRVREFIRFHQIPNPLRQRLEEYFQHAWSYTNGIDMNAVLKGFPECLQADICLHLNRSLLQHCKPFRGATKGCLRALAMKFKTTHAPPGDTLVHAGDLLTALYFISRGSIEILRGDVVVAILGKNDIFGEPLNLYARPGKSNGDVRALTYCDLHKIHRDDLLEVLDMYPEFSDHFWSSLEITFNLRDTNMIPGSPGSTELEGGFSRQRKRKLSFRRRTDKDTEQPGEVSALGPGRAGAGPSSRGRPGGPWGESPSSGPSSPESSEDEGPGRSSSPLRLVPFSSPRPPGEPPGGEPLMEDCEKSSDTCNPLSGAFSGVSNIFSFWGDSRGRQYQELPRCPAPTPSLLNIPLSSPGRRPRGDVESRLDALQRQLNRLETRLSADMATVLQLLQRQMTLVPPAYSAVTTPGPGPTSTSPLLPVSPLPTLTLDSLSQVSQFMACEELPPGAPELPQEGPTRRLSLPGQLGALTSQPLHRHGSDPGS

hERG (KCNH2) [8] = molecular target: T1, hERG (KCNH2); assay: Inhibition of hERG at 10 uM at -80 mV holding potential by whole-cell patch clamp analysis relative to control; format: toxicity

Row | EC50 [2] [nM] | SMILES | other results
1 | 3.62 | O=C(O)c1ccc2nc(CN3CCC(Oc4cccc(COc5cc(Cl)c6occc6c5)n4)CC3)n(C[C@@H]3CCO3)c2n1 | –
2 | 3.7 | O=C(O)c1cc2c(nc(CN3CCC(Oc4ccnc(COc5ccc(Cl)cc5)n4)CC3)n2C[C@@H]2CCO2)s1 | –
3 | 14.6 | O=C(O)c1cc2c(nc(CN3CCC(Oc4cccc(Cc5ccc6cnn(CC(F)F)c6c5)n4)CC3)n2C[C@@H]2CCO2)s1 | –
4 | 0.45 | COc1cc(C#N)ccc1OCc1nccc(OC2CCN(Cc3nc4sc(C(=O)O)cc4n3C[C@@H]3CCO3)CC2)n1 | –
5 | 70 | O=C(O)c1cc2c(nc(CN3CCC(Oc4cccc(Cc5ccc(Cl)c6ccoc56)n4)CC3)n2C[C@@H]2CCO2)s1 | –
6 | 0.8 | Cn1nc(Cl)c2ccc(OCc3cccc(OC4CCN(Cc5nc6ccc(C(=O)O)nc6n5C[C@@H]5CCO5)CC4)n3)c(F)c21 | –
7 | 81 | O=C(O)c1cc2c(nc(CN3CCC(Oc4cccc(Cc5ccccc5F)n4)CC3)n2C[C@@H]2CCO2)s1 | –
8 | 0.062 | O=C(O)c1ccc2nc(CN3CCC(Oc4cccc(COc5ccc(Cl)c6ccoc56)n4)CC3)n(C[C@@H]3CCO3)c2n1 | inhibition at 1 µM (hERG (KCNH2) [7]): 1%; Tmax at 24 h (in vivo): 0.5 h; inhibition at 10 µM (hERG (KCNH2) [8]): 9.8%; Fa at 24 h [3]: 13.4%; CL/F [4]: 448 mL/min/kg; AUC(0-inf) [5]: 204 ng·h/mL; Cmax [6]: 116 ng/mL
9 | 19.4 | COc1ccc(C(F)(F)F)cc1OCc1nccc(OC2CCN(Cc3nc4sc(C(=O)O)cc4n3C[C@@H]3CCO3)CC2)n1 | –
10 | 1.14 | N#Cc1ccc(Cc2cccc(OC3CCN(Cc4nc5ccc(C(=O)O)cc5n4C[C@@H]4CCO4)CC3)n2)c(F)c1 | –
11 | 0.2 | O=C(O)c1cc2c(nc(CN3CCC(Oc4ccnc(COc5ccc(Cl)cc5F)n4)CC3)n2C[C@@H]2CCO2)s1 | –
12 | 1.84 | O=C(O)c1cc2c(nc(CN3CCC(Oc4ccnc(Cc5ccc(Cl)c6ccoc56)n4)CC3)n2C[C@@H]2CCO2)s1 | –
13 | 5.47 | N#Cc1ccc(Cc2cccc(OC3CCN(Cc4nc5sc(C(=O)O)cc5n4C[C@@H]4CCO4)CC3)n2)cc1 | –
14 | 661 | Cn1ccc(-c2ccc(Cc3cccc(OC4CCN(Cc5nc6sc(C(=O)O)cc6n5C[C@@H]5CCO5)CC4)n3)cc2)n1 | –
15 | 9.83 | N#Cc1ccc(COc2cccc(OC3CCN(Cc4nc5sc(C(=O)O)cc5n4C[C@@H]4CCO4)CC3)n2)c(F)c1 | –
16 | 0.2 | COc1cc2c(Cl)ccc(OCc3cccc(OC4CCN(Cc5nc6ccc(C(=O)O)cc6n5C[C@@H]5CCO5)CC4)n3)c2o1 | –
17 | 0.79 | O=C(O)c1cc2c(nc(CN3CCC(Oc4ccnc(Cc5ccc(Cl)cc5)n4)CC3)n2C[C@@H]2CCO2)s1 | –
18 | 87.7 | O=C(O)c1cc2c(nc(CN3CCC(Oc4cccc(Cc5ccccc5)n4)CC3)n2C[C@@H]2CCO2)s1 | –

Row | EC50 [2] [nM] | SMILES | other results
19 | 0.32 | N#Cc1ccc(OCc2nccc(OC3CCN(Cc4nc5sc(C(=O)O)cc5n4C[C@@H]4CCO4)CC3)n2)c(F)c1 | –
20 | 0.21 | O=C(O)c1ccc2nc(CN3CCC(Oc4cccc(COc5ccc(Cl)c6cc(F)oc56)n4)CC3)n(C[C@@H]3CCO3)c2c1 | –
21 | 0.52 | N#Cc1ccc(OCc2cccc(OC3CCN(Cc4nc5sc(C(=O)O)cc5n4C[C@@H]4CCO4)CC3)n2)c(F)c1 | inhibition at 10 µM (hERG (KCNH2) [8]): 0.9%
22 | 9.53 | O=C(O)c1cc2c(nc(CN3CCC(Oc4cccc(OCc5ccc(Cl)cc5)n4)CC3)n2C[C@@H]2CCO2)s1 | –
23 | 96.8 | N#Cc1ccc(Cc2cccc(OC3CCN(Cc4nc5sc(C(=O)O)cc5n4C[C@@H]4CCO4)CC3)n2)c2occc12 | –
24 | 1.76 | O=C(O)c1cc2c(nc(CN3CCC(Oc4cccc(COc5ccc(Cl)cc5F)n4)CC3)n2C[C@@H]2CCO2)s1 | –
25 | 0.91 | O=C(O)c1cc2c(nc(CN3CCC(Oc4cccc(COc5ccc(Cl)cc5)n4)CC3)n2C[C@@H]2CCO2)s1 | –
26 | 0.46 | N#Cc1ccc(OCc2cccc(OC3CCN(Cc4nc5ccc(C(=O)O)cc5n4C[C@@H]4CCO4)CC3)n2)c(OC(F)(F)F)c1 | –
27 | 396 | O=C(O)c1cc2c(nc(CN3CCC(Oc4nccc(Cc5ccc(Cl)cc5)n4)CC3)n2C[C@@H]2CCO2)s1 | –
28 | 176 | O=C(O)c1cc2c(nc(CN3CCC(Oc4cccc(Cc5ccc6cn[nH]c6c5F)n4)CC3)n2C[C@@H]2CCO2)s1 | –
29 | 16.9 | O=C(O)c1cc2c(nc(CN3CCC(Oc4cccc(Cc5ccc(-c6ccn(C(F)F)n6)cc5)n4)CC3)n2C[C@@H]2CCO2)s1 | –
30 | 2.66 | O=C(O)c1cc2c(nc(CN3CCC(Oc4cccc(Cc5ccc(Cl)cc5)n4)CC3)n2C[C@@H]2CCO2)s1 | –
31 | 258 | Cn1ncc2ccc(Cc3cccc(OC4CCN(Cc5nc6sc(C(=O)O)cc6n5C[C@@H]5CCO5)CC4)n3)cc21 | –
32 | 20.4 | COc1ccc(Cc2cccc(OC3CCN(Cc4nc5sc(C(=O)O)cc5n4C[C@@H]4CCO4)CC3)n2)cc1 | –
33 | 77.1 | Cn1ncc2ccc(Cc3cccc(OC4CCN(Cc5nc6sc(C(=O)O)cc6n5C[C@@H]5CCO5)CC4)n3)c(F)c21 | –
34 | 3.75 | O=C(O)c1cc2c(nc(CN3CCC(Oc4cccc(Cc5ccc(Cl)cc5F)n4)CC3)n2C[C@@H]2CCO2)s1 | –
35 | 9.81 | N#Cc1ccc(Cc2cccc(OC3CCN(Cc4nc5sc(C(=O)O)cc5n4C[C@@H]4CCO4)CC3)n2)c(F)c1 | –

Further lines, the compound ahead of its results:

Row | SMILES | EC50 [2] [nM] | other results
36 | COc1cc(C(=O)O)cc2c1nc(CN1CCC(c3cccc(OCc4ccc(C5CC(F)(F)C5)cc4F)n3)CC1)n2C[C@@H]1CCO1 | 0.016 | half-life [1]: 1.5 h; Tmax at 24 h (in vivo): 1.67 h; Fa at 24 h [3]: 1.99%; CL/F [4]: 1490 mL/min/kg; AUC(0-inf) [5]: 61.8 ng·h/mL; Cmax [6]: 20.2 ng/mL
37 | C[C@H]1CN(c2cccc(OCc3ccc(CC(F)F)cc3F)n2)CCN1Cc1nc2c(F)cc(C(=O)O)cc2n1C[C@@H]1CCO1 | 0.07 | –
38 | O=C(O)c1ccc2nc(CN3CCC(Oc4cccc(Cc5ccc6cnn(CC(F)F)c6c5F)n4)CC3)n(C[C@@H]3CCO3)c2n1 | 3.36 | –
39 | Cc1nn(C)c2c(F)c(Cc3cccc(OC4CCN(Cc5nc6ccc(C(=O)O)nc6n5C[C@@H]5CCO5)CC4)n3)ccc12 | 1.74 | –
40 | O=C(O)c1ccc2nc(CN3CCC(c4cccc(OCc5ccc(C6CC(F)(F)C6)cc5F)n4)CC3)n(C[C@@H]3CCO3)c2c1 | 0.088 | –
41 | Cn1ncc2ccc(Cc3cccc(OC4CCN(Cc5nc6ccc(C(=O)O)nc6n5C[C@@H]5CCO5)CC4)n3)c(F)c21 | 102 | –
42 | O=C(O)c1ccc2nc(CN3CC=C(c4cccc(OCc5ccc(CC(F)F)cc5F)n4)CC3)n(C[C@@H]3CCO3)c2n1 | 0.13 | –
43 | O=C(O)c1ccc2nc(CN3CCC(Oc4cccc(COc5ccc6cn[nH]c6c5)n4)CC3)n(C[C@@H]3CCO3)c2n1 | 0.84 | –
44 | O=C(O)c1ccc2nc(CN3CCC(Oc4cccc(Cc5ccc(C6COC6)cc5)n4)CC3)n(C[C@@H]3CCO3)c2n1 | 55.7 | –
45 | O=C(O)c1cc(F)c2nc(CN3CCC(c4cccc(OCc5ccc(C6CC(F)(F)C6)cc5F)n4)CC3)n(C[C@@H]3CCO3)c2c1 | 0.026 | half-life [1]: 2.3 h; Tmax at 24 h (in vivo): 2 h; inhibition at 10 µM (hERG (KCNH2) [8]): 101%; Fa at 24 h [3]: 6.7%; CL/F [4]: 375 mL/min/kg; AUC(0-inf) [5]: 229 ng·h/mL; Cmax [6]: 65.6 ng/mL
46 | N#Cc1ccc(Cc2cccc(OC3CCN(Cc4nc5ccc(C(=O)O)nc5n4C[C@@H]4CCO4)CC3)n2)c2occc12 | 7.91 | –
47 | O=C(O)c1ccc2nc(CN3CCC(Oc4cccc(Cc5ccc(Cl)c6c5OCC6)n4)CC3)n(C[C@@H]3CCO3)c2c1 | 0.11 | –
48 | O=C(O)c1cc(F)c2nc(CN3CCN(c4cccc(OCc5ccc(CC(F)F)cc5F)n4)CC3)n(C[C@@H]3CCO3)c2c1 | 0.086 | –
49 | O=C(O)c1ccc2nc(CN3CCC(Oc4cccc(Cc5ccc(Cl)c6occc56)n4)CC3)n(C[C@@H]3CCO3)c2n1 | 0.35 | –
50 | O=C(O)c1cc(F)c2nc(CN3CC=C(c4cccc(OCc5ccc(CC(F)(F)F)cc5F)n4)CC3)n(C[C@@H]3CCO3)c2c1 | 0.096 | –
51 | CC1(c2ccc(COc3cccc(C4=CCN(Cc5nc6ccc(C(=O)O)cc6n5C[C@@H]5CCO5)CC4)n3)c(F)c2)CC(F)(F)C1 | 6.1 | –
52 | CC1(c2ccc(COc3cccc(C4=CCN(Cc5nc6ccc(C(=O)O)nc6n5C[C@@H]5CCO5)CC4)n3)c(F)c2)CC(F)(F)C1 | 2.91 | –
53 | O=C(O)c1cc(F)c2nc(CN3CCC(c4cccc(OCc5ccc(CC(F)F)cc5F)n4)CC3)n(C[C@@H]3CCO3)c2c1 | 0.096 | –
54 | O=C(O)c1ccc2nc(CN3CCC(c4cccc(OCc5ccc(CC(F)F)cc5F)n4)CC3)n(C[C@@H]3CCO3)c2c1 | 0.26 | –
55 | O=C(O)c1cc(F)c2nc(CN3CC=C(c4cccc(OCc5ccc(CC(F)F)cc5F)n4)CC3)n(C[C@@H]3CCO3)c2c1 | 0.015 | –
56 | O=C(O)c1ccc2nc(CN3CCC(Oc4cccc(COc5ccc6c(Cl)nn(CC(F)F)c6c5F)n4)CC3)n(C[C@@H]3CCO3)c2n1 | 0.32 | –
57 | O=C(O)c1ccc2nc(CN3CCC(Oc4cccc(Cc5ccc6cn[nH]c6c5F)n4)CC3)n(C[C@@H]3CCO3)c2n1 | 46.8 | –
58 | O=C(O)c1ccc2nc(CN3CC=C(c4cccc(OCc5ccc(CC(F)(F)F)cc5F)n4)CC3)n(C[C@@H]3CCO3)c2n1 | 0.13 | –
59 | O=C(O)c1cc(F)c2nc(CN3CCC(c4cccc(OCc5ccc(CC(F)(F)F)cc5F)n4)CC3)n(C[C@@H]3CCO3)c2c1 | 0.35 | –
60 | O=C(O)c1ccc2nc(CN3CCC(Oc4ccnc(Cc5ccc(Cl)c6ccoc56)n4)CC3)n(C[C@@H]3CCO3)c2n1 | 0.34 | –
61 | CC1(c2ccc(COc3cccc(-c4ccc(Cc5nc6ccc(C(=O)O)cc6n5C[C@@H]5CCO5)c(F)c4)n3)c(F)c2)CC(F)(F)C1 | 3.1 | –
62 | CC1(c2ccc(COc3cccc(-c4ccc(Cc5nc6ccc(C(=O)O)nc6n5C[C@@H]5CCO5)c(F)c4)n3)c(F)c2)CC(F)(F)C1 | 2.64 | –
63 | Cn1ncc2ccc(Cc3cccc(OC4CCN(Cc5nc6c(F)cc(C(=O)O)cc6n5C[C@@H]5CCO5)CC4)n3)c(F)c21 | 0.96 | –
